{"source": "ChEMBL document CHEMBL4346735", "about": "“Discovery and pharmacological evaluation of indole derivatives as potent and selective RORγt inverse agonist for multiple autoimmune conditions” (Bioorg Med Chem Lett, 2019)"}
{"target": "Cytochrome P450 3A4 (Homo sapiens, UniProt P08684)", "sequence (P08684 whole entry)": "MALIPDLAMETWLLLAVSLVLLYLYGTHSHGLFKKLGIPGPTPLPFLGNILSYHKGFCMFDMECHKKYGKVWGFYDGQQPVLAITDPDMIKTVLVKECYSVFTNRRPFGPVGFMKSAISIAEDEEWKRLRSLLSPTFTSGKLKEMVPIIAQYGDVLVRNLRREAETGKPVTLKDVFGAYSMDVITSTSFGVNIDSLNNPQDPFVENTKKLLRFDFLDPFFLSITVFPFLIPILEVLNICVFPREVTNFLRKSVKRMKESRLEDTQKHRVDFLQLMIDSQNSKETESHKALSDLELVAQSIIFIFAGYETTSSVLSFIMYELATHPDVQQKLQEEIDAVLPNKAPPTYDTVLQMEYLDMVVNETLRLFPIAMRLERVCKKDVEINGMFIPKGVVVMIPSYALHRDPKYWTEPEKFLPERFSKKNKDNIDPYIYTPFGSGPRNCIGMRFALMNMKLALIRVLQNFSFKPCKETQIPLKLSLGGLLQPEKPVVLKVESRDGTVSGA", "assay": "Inhibition of CYP3A4 in human liver microsomes using midazolam as substrate preincubated for 5 mins followed by NADPH addition measured after 10 mins by LC-MS/MS analysis", "settings": "not given", "units": {"IC50": "µM"}}
{"smiles": "Cc1cccc(Cl)c1C(=O)c1cn(-c2ccc(C(=O)O)cc2)c2ccccc12", "IC50": "> 50"}
{"test_system": "not listed separately", "assay": "Metabolic stability in mouse liver microsomes assessed as parent compound remaining at 1 uM preincubated for 5 mins followed by NADPH addition after 30 mins by LC-MS/MS analysis", "format": "ADME, Microsome", "settings": "read-out: Stability", "units": {"remaining at 0.5 h, 1 µM": "%"}}
{"smiles": "Cc1cccc(Cl)c1C(=O)c1cn(-c2ccc(C(=O)O)cc2)c2ccccc12", "remaining at 0.5 h, 1 µM": 85}
{"test_system": "not listed separately", "assay": "Solubility of the compound at pH 2.1", "settings": "buffer", "units": {"solubility": "µM"}}
{"smiles": "Cc1cccc(Cl)c1C(=O)c1cn(-c2ccc(C(=O)O)cc2)c2ccccc12", "solubility": 1}
{"test_system": "not listed separately", "assay": "Metabolic stability in rat liver microsomes assessed as parent compound remaining at 1 uM preincubated for 5 mins followed by NADPH addition after 30 mins by LC-MS/MS analysis", "format": "ADME, Microsome", "settings": "read-out: Stability", "units": {"remaining at 0.5 h, 1 µM": "%"}}
{"smiles": "Cc1cccc(Cl)c1C(=O)c1cn(-c2ccc(C(=O)O)cc2)c2ccccc12", "remaining at 0.5 h, 1 µM": 83}
{"target": "Cytochrome P450 2C9 (Homo sapiens, UniProt P11712)", "sequence (P11712 whole entry)": "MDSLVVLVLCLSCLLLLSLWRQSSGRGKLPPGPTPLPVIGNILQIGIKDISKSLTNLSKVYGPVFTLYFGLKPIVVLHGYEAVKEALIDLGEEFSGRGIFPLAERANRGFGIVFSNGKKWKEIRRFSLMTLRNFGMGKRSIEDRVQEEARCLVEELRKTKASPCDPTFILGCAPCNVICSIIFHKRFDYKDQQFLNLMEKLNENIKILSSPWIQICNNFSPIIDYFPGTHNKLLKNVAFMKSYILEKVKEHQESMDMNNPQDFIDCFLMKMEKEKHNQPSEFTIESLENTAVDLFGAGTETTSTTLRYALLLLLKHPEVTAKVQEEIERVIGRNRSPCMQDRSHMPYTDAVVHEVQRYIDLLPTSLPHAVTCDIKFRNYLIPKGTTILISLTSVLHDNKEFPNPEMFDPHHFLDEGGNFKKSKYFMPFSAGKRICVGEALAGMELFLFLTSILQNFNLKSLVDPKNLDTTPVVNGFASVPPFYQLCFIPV", "assay": "Inhibition of CYP2C9 in human liver microsomes using diclofenac as substrate preincubated for 5 mins followed by NADPH addition measured after 10 mins by LC-MS/MS analysis", "settings": "not given", "units": {"IC50": "µM"}}
{"smiles": "Cc1cccc(Cl)c1C(=O)c1cn(-c2ccc(C(=O)O)cc2)c2ccccc12", "IC50": 13.5}
{"test_system": "not listed separately", "assay": "Cmax in mouse at 10 mg/kg, po", "format": "ADME, organism-based", "parameters": "dose 10 mg/kg, route oral", "settings": "in vivo", "units": {"Cmax": "µM"}}
{"smiles": "Cc1cccc(Cl)c1C(=O)c1cn(-c2ccc(C(=O)O)cc2)c2ccccc12", "Cmax": 18.3}
{"target": "T1, Nuclear receptor ROR-gamma (Homo sapiens, UniProt P51449)", "T1 sequence (P51449 whole entry)": "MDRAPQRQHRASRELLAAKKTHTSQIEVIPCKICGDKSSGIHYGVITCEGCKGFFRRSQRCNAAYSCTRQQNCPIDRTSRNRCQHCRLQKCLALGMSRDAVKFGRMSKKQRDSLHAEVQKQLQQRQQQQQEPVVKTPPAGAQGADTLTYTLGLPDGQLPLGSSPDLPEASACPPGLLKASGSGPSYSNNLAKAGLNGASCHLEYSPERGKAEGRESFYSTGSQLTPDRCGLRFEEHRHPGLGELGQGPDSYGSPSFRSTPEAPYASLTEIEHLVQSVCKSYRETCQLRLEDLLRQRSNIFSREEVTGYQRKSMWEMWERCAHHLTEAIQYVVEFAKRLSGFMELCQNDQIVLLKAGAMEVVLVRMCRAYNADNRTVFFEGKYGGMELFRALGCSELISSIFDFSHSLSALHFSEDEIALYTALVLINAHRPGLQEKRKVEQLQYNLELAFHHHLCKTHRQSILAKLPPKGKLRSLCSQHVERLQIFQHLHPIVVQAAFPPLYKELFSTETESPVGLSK", "assay": "Transactivation of recombinant GAL4-DBD fused RORgammat LBD (unknown origin) expressed in HEK293T cells incubated for 18 to 24 hrs by dual-Glo luciferase assay", "format": "cell-based", "settings": "not given", "units": {"IC50": "nM"}}
{"smiles": "Cc1cccc(Cl)c1C(=O)c1cn(-c2ccc(C(=O)O)cc2)c2ccccc12", "IC50": 25}
{"target": "T2, Nuclear receptor ROR-gamma (Mus musculus) (UniProt P51450)", "T2 sequence (whole entry)": "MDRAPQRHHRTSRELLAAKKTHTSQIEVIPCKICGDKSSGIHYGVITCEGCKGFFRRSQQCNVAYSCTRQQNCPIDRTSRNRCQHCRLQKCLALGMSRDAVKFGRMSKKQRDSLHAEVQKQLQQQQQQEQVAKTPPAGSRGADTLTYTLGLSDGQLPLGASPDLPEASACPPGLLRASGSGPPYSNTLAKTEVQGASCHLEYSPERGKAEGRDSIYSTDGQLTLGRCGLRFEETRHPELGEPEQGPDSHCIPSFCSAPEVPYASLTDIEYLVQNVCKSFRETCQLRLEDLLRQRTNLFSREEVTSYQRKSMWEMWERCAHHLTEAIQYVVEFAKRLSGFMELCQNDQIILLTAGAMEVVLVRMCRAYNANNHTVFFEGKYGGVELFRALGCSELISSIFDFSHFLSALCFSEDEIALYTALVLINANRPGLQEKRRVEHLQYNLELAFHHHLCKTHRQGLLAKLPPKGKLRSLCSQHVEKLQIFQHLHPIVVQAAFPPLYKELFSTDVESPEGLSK", "assay": "Transrepression of RORgammat in Balb/c mouse splenocytes assessed as inhibition of anti-CD3/anti-CD28 stimulated IL-17 gene expression at 3 uM measured after 24 hrs in presence of anti-CD3/anti-CD28", "format": "cell-based", "settings": "not given", "units": {"inhibition": "%"}}
{"smiles": "Cc1cccc(Cl)c1C(=O)c1cn(-c2ccc(C(=O)O)cc2)c2ccccc12", "inhibition": 49}
{"target": "Cytochrome P450 2C19 (Homo sapiens, UniProt P33261)", "sequence (P33261 whole entry)": "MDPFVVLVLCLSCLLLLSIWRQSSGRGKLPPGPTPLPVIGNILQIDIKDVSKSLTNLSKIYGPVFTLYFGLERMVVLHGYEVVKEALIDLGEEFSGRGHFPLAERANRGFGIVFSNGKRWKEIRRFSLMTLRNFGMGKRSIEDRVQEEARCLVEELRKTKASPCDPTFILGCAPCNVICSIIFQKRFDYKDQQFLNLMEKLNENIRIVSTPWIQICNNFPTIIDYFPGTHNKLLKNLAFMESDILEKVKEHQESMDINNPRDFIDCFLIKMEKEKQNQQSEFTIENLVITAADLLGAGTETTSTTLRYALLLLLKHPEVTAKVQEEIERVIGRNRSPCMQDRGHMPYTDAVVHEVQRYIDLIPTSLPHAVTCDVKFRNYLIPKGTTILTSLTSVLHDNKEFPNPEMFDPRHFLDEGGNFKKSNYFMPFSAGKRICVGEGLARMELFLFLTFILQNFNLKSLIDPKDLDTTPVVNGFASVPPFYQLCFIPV", "assay": "Inhibition of CYP2C19 in human liver microsomes using (S)-mephenytoin as substrate preincubated for 5 mins followed by NADPH addition measured after 40 mins by LC-MS/MS analysis", "settings": "not given", "units": {"IC50": "µM"}}
{"smiles": "Cc1cccc(Cl)c1C(=O)c1cn(-c2ccc(C(=O)O)cc2)c2ccccc12", "IC50": "> 50"}
{"test_system": "not listed separately", "assay": "Solubility of the compound at pH 4", "settings": "buffer", "units": {"solubility": "µM"}}
{"smiles": "Cc1cccc(Cl)c1C(=O)c1cn(-c2ccc(C(=O)O)cc2)c2ccccc12", "solubility": 1}
{"test_system": "not listed separately", "assay": "Half life in mouse at 3 mg/kg, iv", "format": "ADME, organism-based", "settings": "in vivo", "units": {"half-life": "min"}}
{"smiles": "Cc1cccc(Cl)c1C(=O)c1cn(-c2ccc(C(=O)O)cc2)c2ccccc12", "half-life": 192}
{"test_system": "not listed separately", "assay": "Clearance in mouse at 3 mg/kg, iv", "format": "ADME, organism-based", "settings": "in vivo", "units": {"clearance": "mL/min/kg"}}
{"smiles": "Cc1cccc(Cl)c1C(=O)c1cn(-c2ccc(C(=O)O)cc2)c2ccccc12", "clearance": 9.6}
{"test_system": "not listed separately", "assay": "Oral bioavailability in mouse at 10 mg/kg", "format": "ADME, organism-based", "settings": "in vivo", "units": {"bioavailability": "%"}}
{"smiles": "Cc1cccc(Cl)c1C(=O)c1cn(-c2ccc(C(=O)O)cc2)c2ccccc12", "bioavailability": 45}
{"test_system": "not listed separately", "assay": "Volume of distribution at steady state in mouse at 3 mg/kg, iv", "format": "ADME, organism-based", "settings": "in vivo, read-out: Vdss", "units": {"Vd": "L/kg"}}
{"smiles": "Cc1cccc(Cl)c1C(=O)c1cn(-c2ccc(C(=O)O)cc2)c2ccccc12", "Vd": 2.5}
{"target": "T2, Nuclear receptor ROR-gamma (Mus musculus)", "assay": "Transrepression of RORgammat in Balb/c mouse splenocytes assessed as inhibition of anti-CD3/anti-CD28 stimulated IL-17 gene expression at 30 uM measured after 24 hrs in presence of anti-CD3/anti-CD28", "format": "cell-based", "settings": "not given", "units": {"inhibition": "%"}}
{"smiles": "Cc1cccc(Cl)c1C(=O)c1cn(-c2ccc(C(=O)O)cc2)c2ccccc12", "inhibition": 56}
{"target": "T3, Cytochrome P450 1A2 (Homo sapiens, UniProt P05177)", "T3 sequence (P05177 whole entry)": "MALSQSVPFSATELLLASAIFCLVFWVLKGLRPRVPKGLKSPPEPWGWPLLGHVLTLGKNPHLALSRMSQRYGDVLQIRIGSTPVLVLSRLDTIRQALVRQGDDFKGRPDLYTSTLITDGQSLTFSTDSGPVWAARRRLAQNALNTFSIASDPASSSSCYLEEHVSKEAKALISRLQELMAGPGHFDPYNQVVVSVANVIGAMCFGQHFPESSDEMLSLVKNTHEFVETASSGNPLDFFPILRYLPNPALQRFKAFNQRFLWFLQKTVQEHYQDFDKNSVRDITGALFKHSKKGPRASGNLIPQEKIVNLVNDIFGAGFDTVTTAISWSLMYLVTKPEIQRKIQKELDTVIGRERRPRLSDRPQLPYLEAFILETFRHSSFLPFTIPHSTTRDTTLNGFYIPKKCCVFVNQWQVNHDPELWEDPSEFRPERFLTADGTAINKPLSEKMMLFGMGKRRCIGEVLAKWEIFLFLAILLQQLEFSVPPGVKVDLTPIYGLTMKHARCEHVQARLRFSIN", "assay": "Inhibition of CYP1A2 in human liver microsomes using phenacetin as substrate preincubated for 5 mins followed by NADPH addition measured after 10 mins by LC-MS/MS analysis", "settings": "not given", "units": {"IC50": "µM"}}
{"smiles": "Cc1cccc(Cl)c1C(=O)c1cn(-c2ccc(C(=O)O)cc2)c2ccccc12", "IC50": "> 50"}
{"target": "Cytochrome P450 2D6 (Homo sapiens, UniProt P10635)", "sequence (P10635 whole entry)": "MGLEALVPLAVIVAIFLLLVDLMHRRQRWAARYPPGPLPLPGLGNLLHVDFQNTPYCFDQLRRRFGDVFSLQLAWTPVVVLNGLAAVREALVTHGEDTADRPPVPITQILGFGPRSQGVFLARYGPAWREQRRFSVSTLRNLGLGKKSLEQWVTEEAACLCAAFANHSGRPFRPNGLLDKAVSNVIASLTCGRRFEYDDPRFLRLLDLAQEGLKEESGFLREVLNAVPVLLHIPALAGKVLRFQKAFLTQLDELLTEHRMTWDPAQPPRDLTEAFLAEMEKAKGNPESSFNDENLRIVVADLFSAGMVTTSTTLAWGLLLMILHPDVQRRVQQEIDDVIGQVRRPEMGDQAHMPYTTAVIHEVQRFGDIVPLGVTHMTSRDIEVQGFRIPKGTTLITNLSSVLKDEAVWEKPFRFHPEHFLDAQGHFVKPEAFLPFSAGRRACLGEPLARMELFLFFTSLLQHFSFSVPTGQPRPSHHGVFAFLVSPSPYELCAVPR", "assay": "Inhibition of CYP2D6 in human liver microsomes using dextromethorphan as substrate preincubated for 5 mins followed by NADPH addition measured after 10 mins by LC-MS/MS analysis", "settings": "not given", "units": {"IC50": "µM"}}
{"smiles": "Cc1cccc(Cl)c1C(=O)c1cn(-c2ccc(C(=O)O)cc2)c2ccccc12", "IC50": "> 50"}
{"test_system": "not listed separately", "assay": "Metabolic stability in human liver microsomes assessed as parent compound remaining at 1 uM preincubated for 5 mins followed by NADPH addition after 30 mins by LC-MS/MS analysis", "format": "ADME, Microsome", "settings": "read-out: Stability", "units": {"remaining at 0.5 h, 1 µM": "%"}}
{"smiles": "Cc1cccc(Cl)c1C(=O)c1cn(-c2ccc(C(=O)O)cc2)c2ccccc12", "remaining at 0.5 h, 1 µM": 89}
{"test_system": "not listed separately", "assay": "Tmax in mouse at 10 mg/kg, po", "format": "ADME, organism-based", "settings": "in vivo", "units": {"Tmax": "min"}}
{"smiles": "Cc1cccc(Cl)c1C(=O)c1cn(-c2ccc(C(=O)O)cc2)c2ccccc12", "Tmax": 15}
{"test_system": "not listed separately", "assay": "AUC (0 to 24 hrs) in mouse at 10 mg/kg, po", "format": "ADME, organism-based", "parameters": "dose 10 mg/kg, time < 24 hr, route oral", "settings": "in vivo", "units": {"AUC(0-t) at 24 h": "µM·h"}}
{"smiles": "Cc1cccc(Cl)c1C(=O)c1cn(-c2ccc(C(=O)O)cc2)c2ccccc12", "AUC(0-t) at 24 h": 19.6}
{"test_system": "not listed separately", "assay": "Solubility of the compound at pH 7.4", "settings": "buffer", "units": {"solubility": "µM"}}
{"smiles": "Cc1cccc(Cl)c1C(=O)c1cn(-c2ccc(C(=O)O)cc2)c2ccccc12", "solubility": "> 2000"}
{"target": "T4, Nuclear receptor ROR-alpha (Homo sapiens, UniProt P35398)", "T4 sequence (P35398 whole entry)": "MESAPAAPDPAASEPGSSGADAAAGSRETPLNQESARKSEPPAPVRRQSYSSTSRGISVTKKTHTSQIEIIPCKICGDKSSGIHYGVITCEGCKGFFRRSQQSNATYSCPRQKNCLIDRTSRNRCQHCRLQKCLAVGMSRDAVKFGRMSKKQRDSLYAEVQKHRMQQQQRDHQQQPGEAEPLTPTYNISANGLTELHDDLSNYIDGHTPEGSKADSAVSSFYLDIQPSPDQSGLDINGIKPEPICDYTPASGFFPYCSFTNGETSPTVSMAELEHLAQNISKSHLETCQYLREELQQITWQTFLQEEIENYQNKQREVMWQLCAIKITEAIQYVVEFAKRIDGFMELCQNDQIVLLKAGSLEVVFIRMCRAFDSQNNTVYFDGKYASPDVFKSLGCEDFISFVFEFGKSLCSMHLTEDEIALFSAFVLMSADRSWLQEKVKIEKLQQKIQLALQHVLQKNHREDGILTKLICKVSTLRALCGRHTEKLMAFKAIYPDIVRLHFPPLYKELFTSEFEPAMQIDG", "assay": "Inhibition of GAL4-DBD fused RORalpha LBD (unknown origin) expressed in HEK293T cells", "format": "cell-based", "settings": "not given", "units": {"IC50": "µM"}}
{"smiles": "Cc1cccc(Cl)c1C(=O)c1cn(-c2ccc(C(=O)O)cc2)c2ccccc12", "IC50": "> 30"}
{"target": "T2, Nuclear receptor ROR-gamma (Mus musculus)", "assay": "Transrepression of RORgammat in Balb/c mouse splenocytes assessed as inhibition of anti-CD3/anti-CD28 stimulated IL-17 gene expression at 0.3 uM measured after 24 hrs in presence of anti-CD3/anti-CD28", "format": "cell-based", "settings": "not given", "units": {"inhibition": "%"}}
{"smiles": "Cc1cccc(Cl)c1C(=O)c1cn(-c2ccc(C(=O)O)cc2)c2ccccc12", "inhibition": 3}
